Assay results: patent publication US20080039383A1, “Methods and compositions for inhibiting ER-stress induced cholesterol/triglyceride accumulation” (HAMILTON CIVIC HOSPITAL RESEARCH DEVELOPMENT INC., priority 1999, published 2008)
Entries after “also recorded” stand apart in the source; their conditions may differ. Blank lines part the entries; values can stand above or below the compound they belong to.

Experiments:
[1] = test system: SREBP, HMG-CoA reductase, IPP isomerase (IPPI) and FPP synthase mRNA; assay: Northern blot analysis of cholesterol/triglyceride biosynthesis and uptake gene mRNA in cultured human cells; assay type: cell-based; conditions: for expression of cholesterol biosynthetic enzymes (Northern analysis): HUVEC and HepG2 cells; for steady-state mRNA levels of IPPI / steady-state mRNA levels of IPPI (IPP isomerase): 4 hours; for steady-state mRNA levels of IPPI: 5 mM amino acid or 2 mM DTT; for steady-state mRNA levels of IPPI (IPP isomerase): homocysteine 5 mM, DTT, β-mercaptoethanol 5 mM, tunicamycin 10 μg/ml, A23187 10 μM; for IPPI mRNA levels: 0-18 hours
Procedure: (§1) Cell culture and treatment conditions. Primary human umbilical vein endothelial cells (HUVEC) were isolated by collagenase treatment of human umbilical veins (Jaffe, E. A, 1973) and cultured in EC medium (M199 medium, 20 μg/ml endothelial cell growth factor, 90 μg/ml porcine intestinal heparin, 100 μg/ml penicillin and 100 μg/ml streptomycin) containing 20% fetal bovine serum (Hyclone; Logan, Utah) in a humidified incubator at 37° C. with 5% CO2. Cells from passages 2-4 were used in these studies. Human aortic smooth muscle cells (HASMC) were purchased from Cascade Biologicals (Portland, Oreg.) and cultured in M231 media (Cascade Biologicals) containing smooth muscle cell growth supplement (Cascade Biologicals). The human hepatocarcinoma cell line, HepG2, was obtained from the American Type Culture Collection (ATCC; Rockville, Md.) and cultured in A-DMEM containing 10% fetal bovine serum. DL-homocysteine, L-methionine, DL-cysteine, glycine, DL-dithiothreitol ([…]), tunicamycin, A23187 and β-mercaptoethanol were purchased from Sigma (St. Louis, Mo.). These compounds were prepared fresh in culture medium, sterilized by filtration and added to the cell cultures.
(§2) Preparation of Total RNA. […] .

[2] = test system: GRP78/BiP and GADD153 mRNA; assay: Northern blot analysis of ER stress response genes in HepG2 cells; assay type: cell-based, human; conditions: 4 h, 5 mM amino acids, 2.5 mM DTT, 10 μg/ml tunicamycin
Procedure: as §1, §2

[3] = test system: cultured cells; conditions: cited from earlier work; for overall cell number or viability: extracellular concentrations up to 5 mM
[4] = test system: HepG2 cells; assay: Intracellular total cholesterol in HepG2 cells; assay type: cell-based, human; conditions: HepG2, 0-5 mM, 24-48 h
Procedure: (§3) Lipids are extracted with hexane:isopropanol (3:2), dried and resuspended in hexane. Colorimetric cholesterol assays is carried out using the Sigma Diagnostics Cholesterol Reagent (Sigma) to determine total cholesterol levels. Total plasma cholesterol are measured using the same assay but without the lipid extraction step.
as §1
(§4) Total cholesterol and triglyceride levels.

[5] = test system: HASMC; assay: Intracellular total cholesterol in HASMC; assay type: cell-based, human; conditions: 0-5 mM, 24-48 h
Procedure: as §3, §1, §4

[6] = test system: HASMC; assay: BODIPY FL LDL binding and uptake in HASMC; assay type: cell-based, human
Procedure: as §1
(§5) Uptake of BODIPY FL LDL and image analysis. […] Images were subsequently captured and analyzed using Northern Exposure image analysis/archival software (Mississauga, ON).

[7] = test system: HUVEC; assay: BODIPY FL LDL / AcLDL binding and uptake in HUVEC; assay type: cell-based, human
Procedure: as §1, §5

[8] = test system: HepG2 cells; assay: BODIPY FL LDL binding and uptake in HepG2 cells; assay type: cell-based, human; conditions: 5 mM homocysteine 8 hr
Procedure: as §1, §5

[9] = test system: HUVEC; assay: Intracellular total cholesterol in HUVEC; assay type: cell-based, human; conditions: 0-5 mM, 24-48 h
Procedure: as §3
as §1, with “These compounds were prepared fresh in culture medium, sterilized by filtration and added to the cell cultures.” left out

[10] = test system: SREBP-2; assay: Immunoblot of SREBP-2 forms in HepG2 cells; assay type: cell-based, human; conditions: HepG2 cells (data not shown)
Procedure: as §1
(§6) Immunoblot analysis. The anti-KDEL mAb (SPA-827), which recognizes both GRP78/BiP and GRP94, was purchased from StressGen Biotechnologies (Victoria, BC). […]

[11] = test system: GRP78/BiP and GRP94; assay: Immunoblot with anti-KDEL mAb in HepG2 cells; assay type: cell-based, human; conditions: HepG2, 5 mM homocysteine, 8, 18 and 36 h
Procedure: as §1, §6

[12] = test system: SREBP-1; assay: Immunoblot of SREBP-1 precursor and mature forms in HepG2 cells; assay type: cell-based, human; conditions: 5 mM homocysteine
Procedure: as §1, §6

[13] = HepG2 cells, 5 mM homocysteine, 0-18 h

Compound: O[C@H](CS)[C@H](O)CS (racemic) [DTT, DL-dithiothreitol]
expression of cholesterol biosynthetic enzymes (Northern analysis) [1]: induce the cholesterol biosynthetic pathway in a manner similar to that of homocysteine | steady-state mRNA levels of IPPI ([1]; HUVEC): significantly increased IPPI mRNA levels | steady-state mRNA levels of IPPI (IPP isomerase) ([1]; HepG2 cells): induced the expression of IPP isomerase; also recorded: increase IPPI mRNA levels | steady-state mRNA levels of GRP78/BiP and GADD153 [2]: also induced the steady-state mRNA levels of GRP78/BiP and GADD153

Compound: NC(CS)C(=O)O (racemic) [cysteine, DL-cysteine]
overall cell number or viability [3]: does not effect cell viability | total cellular cholesterol normalized to protein [4]: but not cysteine, increased cellular cholesterol | total cellular cholesterol normalized to protein [5]: but not cysteine, increased cellular cholesterol | expression of cholesterol biosynthetic enzymes (Northern analysis) [1]: no other amino acids, including thiol-containing methionine and cysteine, have significant effects | steady-state mRNA levels of IPPI ([1]; HUVEC): only homocysteine and DTT significantly increased IPPI mRNA levels | steady-state mRNA levels of GRP78/BiP and GADD153 [2]: failed to induce the expression of these ER stress response genes

ability to bind LDL ([6]; after 18 h of incubation): no impairment
Compound: NC(CCS)C(=O)O (racemic) [homocysteine, DL-homocysteine]
LDL uptake ([6]; 5 mM homocysteine 8 hr): maintained their ability to endocytose LDL | LDL or AcLDL binding ([7]; 4 hour pre-treatment with 5 mM homocysteine): no significant effect | LDL and AcLDL binding/uptake ([7]; 8 h incubation with 5 mM homocysteine): significant decrease in LDL and AcLDL binding; also recorded: significant decrease in LDL uptake; also recorded: similarly down-regulated | overall cell number or viability [3]: no effect on overall cell number or viability; also recorded: does not effect cell viability | EC injury ([3]; homocysteine concentrations up to 5 mM): do not cause EC injury | total cellular cholesterol normalized to protein [4]: promotes cholesterol accumulation | total cellular cholesterol normalized to protein ([4]; listed as Homocysteine): increased cellular cholesterol | LDL binding/uptake [8]: may further enhance LDL binding; also recorded: enhanced LDL uptake | total cellular cholesterol normalized to protein [5]: promotes cholesterol accumulation | total cellular cholesterol normalized to protein ([5]; listed as Homocysteine): increased cellular cholesterol | total cellular cholesterol normalized to protein [9]: no significant change in the total cholesterol concentration; also recorded: unchanged | active and precursor forms of SREBP-2 [10]: also increased | GRP78/BiP and GRP94 protein levels [11]: elevated | IPPI mRNA levels ([1]; HASMC, 5 mM homocysteine): significantly increases IPPI mRNA levels | IPPI mRNA levels ([1]; HUVEC, 5 mM homocysteine): significantly increases IPPI mRNA levels | expression of cholesterol biosynthetic pathway genes, clusterin and SREBP ([1]; HUVEC, 1-5 mM homocysteine for as little as 2 hours): enhanced | steady-state mRNA levels of IPPI ([1]; HUVEC): significantly increased IPPI mRNA levels | IPPI mRNA levels ([1]; HepG2, 5 mM homocysteine): significantly increases IPPI mRNA levels | steady-state mRNA levels of SREBP, HMG-CoA reductase and FPP synthase ([1]; HepG2 cells, 5 mM homocysteine, 0, 2, 4, 8 or 18 hours): increased steady-state mRNA levels for all transcripts | steady-state mRNA levels of HMG-CoA reductase, IPP isomerase and FPP synthase [1, 13]: increased and peaked between 2 and 4 hr | steady-state mRNA levels of SREBP-1 [1, 13]: increased and peaked between 2 and 4 h | steady-state mRNA levels of IPPI (IPP isomerase) ([1]; HepG2 cells): induced the expression of IPP isomerase; also recorded: increase IPPI mRNA levels | mRNA levels of acetyl CoA carboxylase, fatty acid synthase and LDL receptor ([1]; homocysteine treated HepG2 cells (data not shown)): also increased | levels of active (68 kDa) and precursor (125 kDa) forms of SREBP-1 [12]: increased levels of both active (68 kDa) and precursor (125 kDa) forms of SREBP-1 | steady-state mRNA levels of GRP78/BiP and GADD153 [2]: increased steady-state mRNA levels of GRP78/BiP and GADD153

Compound: CNc1ccc2oc(C[C@H]3O[C@@]4(CC[C@H]3C)O[C@H]([C@H](C)C(=O)c3ccc[nH]3)[C@H](C)C[C@H]4C)nc2c1C(=O)O [A23187]
expression of cholesterol biosynthetic enzymes (Northern analysis) [1]: induce the cholesterol biosynthetic pathway in a manner similar to that of homocysteine | steady-state mRNA levels of IPPI (IPP isomerase) ([1]; HepG2 cells): induced the expression of IPP isomerase; also recorded: increase IPPI mRNA levels

Compound: C[C@@H]1C[C@@H]([C@H](O)CC2CC(=O)NC(=O)C2)C(=O)[C@@H](C)C1 [cycloheximide]
effect on induction of cholesterol/triglyceride genes by homocysteine ([1]; data not shown): does not block the induction of these genes by homocysteine

Compound: NCC(=O)O [glycine]
steady-state mRNA levels of IPPI ([1]; HUVEC): only homocysteine and DTT significantly increased IPPI mRNA levels | steady-state mRNA levels of GRP78/BiP and GADD153 [2]: failed to induce the expression of these ER stress response genes

Compound: N[C@@H](CCO)C(=O)O [homoserine]
steady-state mRNA levels of IPPI ([1]; HUVEC): only homocysteine and DTT significantly increased IPPI mRNA levels | steady-state mRNA levels of GRP78/BiP and GADD153 [2]: failed to induce the expression of these ER stress response genes

Compound: CSCC[C@H](N)C(=O)O [methionine, L-methionine]
expression of cholesterol biosynthetic enzymes (Northern analysis) [1]: no other amino acids, including thiol-containing methionine and cysteine, have significant effects | steady-state mRNA levels of IPPI ([1]; HUVEC): only homocysteine and DTT significantly increased IPPI mRNA levels | steady-state mRNA levels of GRP78/BiP and GADD153 [2]: failed to induce the expression of these ER stress response genes

Compound: OCCS [β-mercaptoethanol]
steady-state mRNA levels of IPPI (IPP isomerase) ([1]; HepG2 cells): induced the expression of IPP isomerase; also recorded: increase IPPI mRNA levels

Compound: tunicamycin
expression of cholesterol biosynthetic enzymes (Northern analysis) [1]: induce the cholesterol biosynthetic pathway in a manner similar to that of homocysteine | steady-state mRNA levels of IPPI (IPP isomerase) ([1]; HepG2 cells): induced the expression of IPP isomerase; also recorded: increase IPPI mRNA levels | steady-state mRNA levels of GRP78/BiP and GADD153 [2]: also induced the steady-state mRNA levels of GRP78/BiP and GADD153
